Test results reported in US10323063B2, “Advanced macromolecule transduction domain (aMTD) sequences for improvement of cell-permeability, polynucleotides encoding the same, method to identify the unique features of aMTDs comprising the same, method to develop the aMTD sequences comprising the same” (CELLIVERY THERAPEUTICS, INC., priority 2014, dated 2019).

Tested on: RAW 264.7 cells
Assay: Quantitative cell-permeability of FITC-labeled aMTD- or rPeptide-fused CRA recombinant proteins by flow cytometry
Assay type: cell-based
Conditions: for Relative Ratio to aMTD AVE: cell-permeability of rPeptide relative to the average of 240 aMTDs
From the text: The aMTDs and rPeptides were fluorescently labeled and compared based on the critical factors for cell-permeability by using flow cytometry and confocal laser scanning microscopy (FIG. 5 to 8). The cellular uptake of the peptide-fused non-functional cargo recombinant proteins could quantitatively be evaluated in flow cytometry, while confocal laser scanning microscopy allows intracellular uptake to be assessed visually. The analysis included recombinant proteins fused to a negative control [rP38] that has opposite characteristics (hydrophilic and aromatic sequence: YYNQSTCGGQCY) to the aMTDs (hydrophobic and aliphatic sequences). Relative cell-permeability (relative fold) of aMTDs to the negative control was also analyzed (TABLE 39 and FIG. 9).
Geometric means of negative control (histidine-tagged rP38-fused CRA recombinant protein) subtracted by that of naked protein (histidine-tagged CRA protein) lacking any peptide (rP38 or aMTD) was standardized as relative fold of 1.
For quantitative cell-permeability, the aMTD- or rPeptide-fused recombinant proteins were conjugated to fluorescein isothiocyanate (FITC) according to the manufacturer's instructions (Sigma-Aldrich, St. Louis, Mo.). RAW 264.7 cells were treated with 10 μM FITC-labeled recombinant proteins for 1 hour at 37° C., washed three times with cold PBS, treated with 0.25% tripsin/EDTA (Sigma-Aldrich, St. Louis, Mo.) for 20 minutes at 37° C. to remove cell-surface bound proteins. Cell-permeability of these recombinant proteins were analyzed by flow cytometry (Guava, Millipore, Darmstadt, Germany) using the FlowJo cytometric analysis software (FIG. 5 to 6). The relative cell-permeability of aMTDs were measured and compared with the negative control (rP38) and reference hydrophobic CPPs (MTM12 and MTD85) (TABLE 47).

[1] = cell-permeability of aMTD-fused CRA recombinant protein relative to negative control (A: rP38)
[2] = cell-permeability of aMTD-fused CRA recombinant protein relative to negative control rP38 (A type)
[3] = cell-permeability relative to reference CPP MTD85 (C type)
[4] = cell-permeability relative to reference CPP MTM12 (B type)
[5] = cell-permeability of aMTD-fused CRA recombinant protein relative to reference CPP (B: MTM12)
[6] = cell-permeability of aMTD-fused CRA recombinant protein relative to reference CPP (C: MTD85)

Row | Substance | Relative Ratio (Fold) A [1] [Fold] | Relative Ratio (Fold) A [2] [Fold] | Relative Ratio (Fold) C [3] [Fold] | Relative Ratio (Fold) B [4] [Fold] | Relative Ratio (Fold) B [5] [Fold] | Relative Ratio (Fold) C [6] [Fold] | other results
1 | 910 (VAALLPAVVVAP; Advanced Macromolecule Transduction Domain (aMTD) Sequences for Improvement of Cell-Permeability) [compound 910] | 148.5 |  |  |  |  |  | 
2 | 772 (LPVAPVIPIIVP) [compound 772] |  |  |  |  |  |  | Relative Ratio to aMTD AVE: 0.16
3 | 81 (AALLPALAALLP; Advanced Macromolecule Transduction Domain (aMTD) Sequences for Improvement of Cell-Permeability) [compound 81] |  | 6.9 | 2.3 | 4.6 |  |  | 
4 | 481 (AIAIAIVPVALP; Advanced Macromolecule Transduction Domain (aMTD) Sequences for Improvement of Cell-Permeability) [compound 481] | 34.3 |  |  |  | 23.0 | 11.6 | 
5 | 787 (AVALVPVIVAAP; Advanced Macromolecule Transduction Domain (aMTD) Sequences for Improvement of Cell-Permeability) [compound 787] | 29.3 |  |  |  | 19.6 | 9.9 | 
6 | 606 (AAAIAAIPIIIP) [compound 606] |  |  |  |  |  |  | Relative Ratio to aMTD AVE: 0.20
7 | 49 (VVPAAPAVPVVP) [compound 49] |  |  |  |  |  |  | Relative Ratio to aMTD AVE: 0.18
8 | 104 (AVVAAPLVLALP; Advanced Macromolecule Transduction Domain (aMTD) Sequences for Improvement of Cell-Permeability) [compound 104] |  | 7.3 | 2.5 | 4.9 |  |  | 
9 | 879 (AAIVLLPAVVVP; Advanced Macromolecule Transduction Domain (aMTD) Sequences for Improvement of Cell-Permeability) [compound 879] |  | 7.2 | 2.4 | 4.8 |  |  | 
10 | 849 (AVILLAPLIAAP; Advanced Macromolecule Transduction Domain (aMTD) Sequences for Improvement of Cell-Permeability) [compound 849] |  |  | 2.8 |  |  |  | 
11 | 563 (ALAVIVVPALAP; Advanced Macromolecule Transduction Domain (aMTD) Sequences for Improvement of Cell-Permeability) [compound 563] | 47.1 |  |  |  | 31.4 | 15.9 | 
12 | 204 (LIAALPAVAALP; Advanced Macromolecule Transduction Domain (aMTD) Sequences for Improvement of Cell-Permeability) [compound 204] |  | 2.2 | 0.8 | 1.5 |  |  | 
13 | 363 (AVLAVAPALIVP; Advanced Macromolecule Transduction Domain (aMTD) Sequences for Improvement of Cell-Permeability) [compound 363] | 14.7 |  |  |  | 9.8 | 4.9 | 
